Data on three molecules can be found in patent publication US8986419B2, “Mixture for treating fertilizers” (SKW Stickstoffwerke Piesteritz GmbH, priority 2010, dated 2015).

≈ marks a conversion by molar mass, not a printed value. Where “and” joins values, the source holds several entries; their conditions need not be identical. Equal values may be shown once.

In general, solubility refers to the dissolved amount per volume that the medium holds.

Series [1] is described as follows: Laboratory test on the volatility of 3-methylpyrazole, storage in open crystallising dishes at room temperature. The format is physicochemical. To be noted: open crystallising dish diameter 5 cm.
Series [2] can be described thus: Simulated open storage test of treated urea granules, TZ/3-MP content determined analytically. The format is physicochemical. The conditions noted are these: storage period 6 weeks, 9 kg in open-topped vessels, ambient temperature and humidity; listed as pure 3-methylpyrazole sprayed on. As to the method: The urea granules enclosed in the cement mixer according to Example 8 were stored in a quantity of 9 kg to simulate storage in a pile in open-topped cylindrical vessels (height 30 cm, diameter 30 cm) at ambient temperature and humidity. After a storage period of 2, 4 and 6 weeks average samples were taken and the nitrification inhibitor TZ/3-MP content was determined analytically.
Enclosed urea granules according to Example 9 were stored in the same way in parallel, and average samples taken from these were investigated analytically.

The conditions of series [3]: aqueous formulation; cited from earlier work.

Turning to `Cc1cc[nH]n1` [Example 3-MP, 3-methylpyrazole], the loss in % in series [1] (storage time 1 day) is reported as 12%; in series [1] (storage time 2 days) it was 26%; in series [1] (storage time 3 days) it was 40%; in series [1] (storage time 6 days), 87%; in series [1] (storage time 12 days), 100%. For the same molecule, the “Active substance losses in relation to the starting value, MP (%)” value in series [2] is 89 ^1% and 89%.
For `c1nc[nH]n1` [TZ, 1,2,4-triazole], the loss in % is 0% in series [1] (storage time 1 day); 0% in series [1] (storage time 2 days); 1% in series [1] (storage time 3 days); 2% in series [1] (storage time 6 days); 2% in series [1] (storage time 12 days).
In the case of `N#CN=C(N)N` [dicyandiamide, Dicyandiamide], the solubility in series [3] is 32 mg/mL (≈ 381 mM).
